Test results published in US20200384072A1, “THERAPY OF IONIZING RADIATION-INDUCED DISORDERS” (SCK-CEN, priority 2019, published 2020).
“Also recorded” adds a separate entry of the source.

Tests used:
RBE4 cells [1] = assay: γ-H2AX counts in electroporation-loaded bystander zone, RBE4 cells; assay type: cell-based, rat; conditions: BH4-Bcl-2 20 μM, BAPTA 60 μM, SOD 100 μg/mL (3 μM)
Method: (§1) Cells were fixed for 25 min with 4% formaldehyde (VWR) and blocked for 30 min with blocking buffer (5% normal goat serum, 1% bovine serum albumin (BSA), 0.2% Triton X-100 in PBS D+). Overnight incubation with primary antibody (1/500 anti-γ-H2AX in dilution buffer, 1/10 blocking buffer in PBS D+) was followed by a 1 h incubation with 1/400 XX-biotin-goat-anti-mouse antibody in dilution buffer, followed by a 1 h incubation with 1/400 streptavidin-alexa488 in PBS D+. Nuclei were stained with 1 μg/mL DAPI in PBS D+ for 10 min and cells were kept in PBS D+ supplemented with NaN3 at 4° C. All steps except the overnight incubation which was carried out at 4° C., were carried out at room temperature and cell cultures were rinsed thoroughly with PBS D+ between all incubation steps. Imaging was performed with an automated BD Pathway 435 imaging system (10× objective, 10×10 montage resulting in an overall image size of 8.5×6.5 mm). We then quantified the number of γ-H2AX-foci positive nuclei in the directly irradiated and bystander areas and expressed the count as a percentage relative to the number of nuclei and subtracted the percentage of background γ-H2AX signal in non-irradiated paired control cultures for each experiment. For counting γ-H2AX foci, images were thresholded to remove background pixel noise below the foci level. Where applicable, results were normalized against vehicle (bar charts with a 100% vehicle bar without statistical variability or a horizontal line).
Cells were grown to near confluency on 4-well plates coated with collagen. Cell monolayer cultures were washed three times with HBSS-Hepes 25 mM (pH 7.2-7.4) and subsequently three times with a low conductivity electroporation buffer (4.02 mM KH2PO4, 10.8 mM K2HPO4, 1.0 mM MgCl2, 300 mM sorbitol, 2.0 mM Hepes, pH 7.4). They were placed 400 μm underneath a two-wire Pt-Ir electrode on the microscopic stage and electroporated in the presence of a tiny amount of electroporation solution (10 μl) containing 100 μg/mL SOD, 60 μM BAPTA or 20 μM BH4-Bcl2 combined with 100 μM 10 kDa DTR. […]

RBE4 cells [2] = assay: Irradiation-induced ATP release, RBE4 cells; assay type: cell-based, rat; conditions: broad-beam 1 Gy, 5 min post-irradiation, BAPTA-AM 10 μM, NALC 1 mM, c-PTIO 100 μM
Method: ATP was measured using a luciferin-luciferase assay kit (Sigma-Aldrich) in combination with a luminometer plate reader (Victor3 1420 multi label counter; Perkin Elmer, Zaventem, Belgium).
Extracellular ATP measurements were initially carried out at different time-points post-irradiation, the effect of blockers on ATP release was tested at the 5 min post-irradiation time-point (time of maximum ATP release).

RBE4 cells [3] = assay: Irradiation-induced propidium iodide dye uptake, RBE4 cells; assay type: cell-based, rat; conditions: 1 Gy, 5 min post-irradiation
Method: Cells were grown to near confluency in 4-well plates. Cultures were incubated with 1 mM propidium iodide (PI) and 200 μM 10 kDa dextran-FITC before focal irradiation and dye uptake was measured 5 min post-irradiation by measuring the fluorescence intensity of both dyes following image acquisition with a BD pathway 435 imaging system.

[4] = tested on: primary brain microvascular endothelial cells (pBMECs); assay: γ-H2AX counts after local 3×3 mm X-ray irradiation (irradiated and bystander zones), pBMECs; assay type: cell-based, mouse; conditions: 1 Gy, 3 h post-irradiation
Method: Cortices, from 10-12 week old mice, were isolated by removing cerebellum, striatum, optic nerves, brain white matter, outer vessels and meninges. After homogenization with a Dounce homogenizer in WBB (Washing Buffer B: HMS, 10 mM Hepes, 0.35 g/L NaHCO3, 0.1% BSA), the homogenate was mixed with 30% dextran in WBB and centrifuged at 3000×g for 25 min at 4° C. The pellet containing the vascular component was then resuspended in WBB and filtered through a 60 μm NY60 Nylon Net Filter (Millipore, Darmstadt, Germany). Following centrifugation at 1000×g for 7 min at room temperature, the pellet was digested in collagenase/dispase supplement with DNase I (Roche Diagnostics, Vilvoorde, Belgium) and TLCK (Tosyl, Lysin chloromethyl ketone, sigma-aldrich) for 33 min at 37° C. in a shaking water bath. The digested capillary suspension was then seeded after multiple washing steps on wells coated with matrigel or glass coated with Corning Cell-Tak (VWR, Leuven, Belgium). For the isolation of intact capillaries the protocol was aborted just before the digestion step.
(§2) A defined area of the cell culture dishes were exposed to X-rays (1Gy or 20 Gy) by using a small animal radiation research platform (SARRP, Xstrahl, 220 kV, 13 mA), making use of a 3×3 mm collimator. Whole dish irradiation was done using a 10×10 cm broad-beam collimator, while localized Irradiation was performed with a 3×3 mm collimator. A Gafchromic RTQA2 film, with a sensitivity of 0.02 Gy, was placed underneath the cell dishes in order to delineate the irradiated zone.
as §1

RBE4 cells [5] = assay: Cytosolic Ca2+ imaging after medium transfer from irradiated to recipient RBE4 cells; assay type: cell-based, rat; conditions: for AUC of Ca2+ transients in recipient bystander cells: inhibitor added to the irradiated culture 30 min before irradiation, NALC 1 mM; for [Ca2+]i responses in recipient cells: inhibitor added to the recipient cells, PPADS 50 μM
Method: Cells were seeded on glass coverslips (18 mm 0) coated with 3.5 μg/cm^2 Corning cell-tak (VWR, Leuven, Belgium) and ester loaded for 45 min with 10 μM Fluo-3-AM in HBSS-HEPES supplemented with 1 mM of probenecid and 0.01% of pluronic F127 at room temperature followed by de-esterification over 15 min. Imaging was performed using an inverted fluorescence microscope equipped with a ×40 oil immersion objective and an EM-CCD camera (QuantEM™ 512SC CCD camera, Photometrics, Tucson, Ariz.). For direct Ca^2+ measurements the loaded cells were irradiated and transferred to the microscopy stage. For medium transfer, the loaded cells were superfused for 1 min with HBSS-Hepes (1 mM), followed by 4 min with HBSS-Hepes conditioned by irradiated cultures. Fluorescence intensity changes in the cells were analyzed with custom-developed FluoFrames software (L. Leybaert, Ghent, Belgium). Ca^2+ changes were quantified as the area under the curve (AUC) of the Ca^2+ traces.

RBE4 cells [6] = assay: γ-H2AX counts after local 3×3 mm X-ray irradiation (irradiated and bystander zones), RBE4 cells; assay type: cell-based, rat; conditions: 1 Gy, 3 h post-irradiation, Cbx 50 μM, Gap26 161 μM, TAT-Gap19 200 μM, Xestospongin C 5 μM
Method: as §2, §1

Molecule	irradiation-induced ATP release (RBE4 cells [2])	γ-H2AX counts in the irradiated area (normalized to vehicle) [4]	γ-H2AX counts in the bystander zone (normalized to vehicle) (RBE4 cells [6])	γ-H2AX counts in the irradiated zone (normalized to vehicle) (RBE4 cells [6])	γ-H2AX counts in the bystander zone (normalized to vehicle) [4]	also measured
BH4-Bcl-2: IP3 receptor blocking peptide (amino acids 6-30 of Bcl-2; MW 3.6 kDa) (RTGYDNREIVMKYIHYKLSQRGYEW; UniProt P10415 6-30, looked up, fragment)	–	–	–	–	–	γ-H2AX scores in the electroporation-loaded bystander zone (normalized to vehicle) (RBE4 cells [1]): strongly reduced the γ-H2AX scores; γ-H2AX scores in the electroporation-loaded bystander zone (normalized to vehicle) (RBE4 cells [1]; listed as BH4-Bcl2): significantly decreased γ-H2AX counts
O=C([O-])CN(CC(=O)[O-])c1ccccc1OCCOc1ccccc1N(CC(=O)[O-])CC(=O)[O-].[K+].[K+].[K+].[K+] [BAPTA]	–	–	–	–	–	γ-H2AX scores in the electroporation-loaded bystander zone (normalized to vehicle) (RBE4 cells [1]): significantly decreased γ-H2AX counts; also recorded: strongly reduced the γ-H2AX scores
Gap26: connexin mimetic peptide, amino acids 64-76 from the first extracellular loop of Cx43 (SEQ ID NO: 1) (VCYDKSFPISHVR; Synthetic peptide_Gap26)	inhibited	only had effect in the bystander zone	significantly inhibited	significantly inhibited	–	PI uptake in the bystander area (RBE4 cells [3]): significantly reduced; also recorded: inhibited; PI uptake in the irradiated area (RBE4 cells [3]): significantly reduced; also recorded: inhibited; AUC of Ca2+ transients in recipient bystander cells (RBE4 cells [5]): reduced the area under the curve (AUC); [Ca2+]i responses in recipient cells (RBE4 cells [5]): inhibited the [Ca^2]i responses
C1CCC[C@H]2CCCN3CC[C@@H](CCCCCC[C@@H]4CCCN5CC[C@@H](CC1)O[C@@H]45)O[C@@H]23 [Xestospongin C]	–	–	significantly reduced γ-H2AX counts in the bystander zone	–	–	–
CC(=O)OCOC(=O)CN(CC(=O)OCOC(C)=O)c1ccccc1OCCOc1ccccc1N(CC(=O)OCOC(C)=O)CC(=O)OCOC(C)=O [BAPTA-AM, 1.2-bis-(2-aminophynoxy)-ethane-N,N,N′,N′,tetraacetic acid acetoxy methyl ester]	inhibited irradiation-induced ATP release; also recorded: significantly decreased ATP release	significantly reduced the γ-H2AX scores in both areas	less clear responses	less clear responses	significantly reduced the γ-H2AX scores in both areas; also recorded: almost zero	–
CC1(C)N([O])C(c2ccc(C(=O)O)cc2)=[N+]([O-])C1(C)C [c-PTIO]	strongly reduced irradiation-induced ATP release	significantly reduced the γ-H2AX scores in both areas	less clear responses	less clear responses	significantly reduced the γ-H2AX scores in both areas	irradiation-induced ATP release (RBE4 cells [2]; listed as C-PTIO): inhibited irradiation-induced ATP release; γ-H2AX counts in the bystander zone (normalized to vehicle) ([4]; listed as C-PTIO): almost zero
Cc1nc(N=Nc2ccc(S(=O)(=O)O)cc2S(=O)(=O)O)c(COP(=O)(O)O)c(C=O)c1O [PPADS, Pyridoxalphosphate-6-azopehyl-2′,4′-disolfonic acid]	–	–	significantly reduced γ-H2AX scores	–	–	[Ca2+]i responses in recipient cells (RBE4 cells [5]): inhibited the [Ca^2]i responses
CC(=O)N[C@@H](CS)C(=O)O [NALC, N-acetyl-L-cystein]	inhibited irradiation-induced ATP release; also recorded: significantly decreased ATP release	significantly reduced the γ-H2AX scores in both areas	less clear responses	less clear responses	significantly reduced the γ-H2AX scores in both areas; also recorded: almost zero	AUC of Ca2+ transients in recipient bystander cells (RBE4 cells [5]): reduced the area under the curve (AUC)
